In the NIST ThermoML archive (doi:10.1021/je100638g):

Columns and labels:
[1] = Molar enthalpy of transition or fusion; conditions: Crystal; DSC
[2] = for mass density / viscosity: 100 kPa, Liquid
[3] = xn = mol fraction of the nth substance listed; conditions: 100 kPa, Liquid, x2 = 0.306

CCCn1cc[n+](C)c1.F[P-](F)(F)(F)(F)F [1-methyl-3-propylimidazolium hexafluorophosphate]
Conditions	Molar enthalpy of transition or fusion [kcal/mol]
[1]	3.99

[2]
Conditions	mass density [kg/m3]	viscosity [mPa·s]
318.15 K	1397.5	85.01
323.15 K	1393.2	68.18
328.15 K	1389	55.46
333.15 K	1384.7	45.7
338.15 K	1380.5	38.09
343.15 K	1376.3	32.1
348.15 K	1372.1	27.32
353.15 K	1367.9	23.47
358.15 K	1363.8	20.34
363.15 K	1359.6	17.77

Conditions	Normal melting temperature [°C]
[2], Crystal, DTA	38.5

CCCn1cc[n+](C)c1.F[P-](F)(F)(F)(F)F [1-methyl-3-propylimidazolium hexafluorophosphate] + O
[3]
Conditions	mass density [kg/m3]	viscosity [mPa·s]
303.15 K	1389.2	39.41
308.15 K	1384.7	32.25
313.15 K	1380.2	26.84
318.15 K	1375.7	22.61
323.15 K	1371.3	19.29
328.15 K	1366.9	16.58
333.15 K	1362.5	14.39
338.15 K	1358.1	12.61
343.15 K	1353.8	11.13
348.15 K	1349.4	9.905
353.15 K	1345.1	8.874
358.15 K	1340.8	7.983
363.15 K	1336.5	7.228
